Experimental data as given in patent US10160726B2, “Quinolone derivatives as antibacterials” (priority 2014, dated 2018).
In brackets after ≈: the same amount, converted by molar mass. Counter-ions that a name gives are not always drawn.

Legend:
Format in all cases: cell-based
[1] = test system: P. aeruginosa NB52023 (efflux deficient K1542, ΔmexX ΔmexB); test: microbe, parasite or virus in culture; details: Pseudomonas aeruginosa, 20 h, read-out: Antibacterial activity (MIC) NB52023
[2] = test system: P. aeruginosa NB52019 (wild-type PAO1); test: MIC, broth microdilution (CLSI); details: Pseudomonas aeruginosa, PAO1, 20 h; read-out: Antibacterial activity (MIC) NB52019
[3] = test system: S. aureus ATCC 29213 (NB01001); test: MIC, broth microdilution (CLSI); details: Staphylococcus aureus, ATCC29213; S. aureus ATCC 29213; 35° C., 20 hours; read-out: Antibacterial activity (MIC) NB01001
[4] = test system: E. coli ATCC 25922 (NB27001); test: MIC, broth microdilution (CLSI); details: Escherichia coli, ATCC25922; E. coli ATCC 25922; 35° C., 20 hours; read-out: Antibacterial activity (MIC) NB27001
[5] = test system: P. aeruginosa NB52023-CDK0006 (gyrA T83I, parC S87L); test: microbe, parasite or virus in culture; details: Pseudomonas aeruginosa, 20 h, read-out: Antibacterial activity (MIC) NB52023-CDK0006
[6] = test system: E. coli NB27177 (efflux deficient CGSC 11430, ΔtolC732::kan); test: microbe, parasite or virus in culture; details: Escherichia coli, 20 h, read-out: Antibacterial activity (MIC) NB27177
[7] = test system: S. aureus NB01006-AVR005 (gyrA S84L, grlA S80F, grlB E471K); test: microbe, parasite or virus in culture; details: Staphylococcus aureus, 20 h, read-out: Antibacterial activity (MIC) NB01006-AVR005

Row | SMILES | MIC [1] [µg/mL] | MIC [2] [µg/mL] | MIC [3] [µg/mL] | MIC [4] [µg/mL] | MIC [5] [µg/mL] | MIC [6] [µg/mL] | MIC [7] [µg/mL]
1 | Cc1c(N2CC[C@@H]([C@H](C)N)C2)c(F)cc2c(OCCNS(C)(=O)=O)cc(=O)n(C3CC3)c12 [Example 66, N-(2-((7-((R)-3-((S)-1-aminoethyl)pyrrolidin-1-yl)-1-cyclopropyl-6-fluoro-8-methyl-2-oxo-1,2-dihydroquinolin-4-yl)oxy)ethyl)methanesulfonamide] | > 32 | > 32 | 4 (≈ 8.57 µM) | 32 (≈ 68.6 µM) | > 32 | 2 (≈ 4.29 µM) | 4 (≈ 8.57 µM)
2 | COc1cc(=O)n(C2CC2)c2c(C)c(N3CC[C@@H]([C@H](C)N)C3)c(F)cc12 [Example 67, 7-((R)-3-((S)-1-aminoethyl)pyrrolidin-1-yl)-1-cyclopropyl-6-fluoro-4-methoxy-8-methylquinolin-2(1H)-one] | 8 (≈ 22.3 µM) | 32 (≈ 89 µM) | 0.06 (≈ 0.167 µM) | 8 (≈ 22.3 µM) | 16 (≈ 44.5 µM) | 0.06 (≈ 0.167 µM) | 0.06 (≈ 0.167 µM)
3 | COc1cc(=O)n(C2CC2)c2c(C)c(N3CC[C@@H]([C@H](C)N)C3)ccc12 [Example 68, 7-((R)-3-((S)-1-aminoethyl)pyrrolidin-1-yl)-1-cyclopropyl-4-methoxy-8-methylquinolin-2(1H)-one] | > 32 | > 32 | 0.5 (≈ 1.46 µM) | 32 (≈ 93.7 µM) | > 32 | 0.25 (≈ 0.732 µM) | 1 (≈ 2.93 µM)
4 | COc1cc(=O)n(C2CC2)c2c(C)c(-c3ccc(N)nc3)ccc12 [Example 69, 7-(6-aminopyridin-3-yl)-1-cyclopropyl-4-methoxy-8-methylquinolin-2(1H)-one] | > 32 | > 32 | 2 (≈ 6.22 µM) | 32 (≈ 99.6 µM) | > 32 | 0.5 (≈ 1.56 µM) | 2 (≈ 6.22 µM)
5 | COc1c(C)c(=O)n(C2CC2)c2c(C)c(-c3ccc(N)nc3)ccc12 [Example 70, 7-(6-aminopyridin-3-yl)-1-cyclopropyl-4-methoxy-3,8-dimethylquinolin-2(1H)-one] | > 32 | 32 (≈ 95.4 µM) | 16 (≈ 47.7 µM) | 32 (≈ 95.4 µM) | > 32 | 2 (≈ 5.96 µM) | 4 (≈ 11.9 µM)
6 | Cc1c(N2CC[C@@H]([C@H](C)N)C2)ccc2c(OCc3ccccc3)cc(=O)n(C3CC3)c12 [Example 71, 7-((R)-3-((S)-1-aminoethyl)pyrrolidin-1-yl)-4-(benzyloxy)-1-cyclopropyl-8-methylquinolin-2(1H)-one TFA salt] | > 32 | > 32 | 2 | 32 | > 32 | 6 | 6
7 | Cc1c(N2CC[C@@H]([C@H](C)N)C2)ccc2c(O)cc(=O)n(C3CC3)c12 [Example 72, 7-((R)-3-((S)-1-aminoethyl)pyrrolidin-1-yl)-1-cyclopropyl-4-hydroxy-8-methylquinolin-2(1H)-one TFA salt] | > 32 | 32 | 16 | 32 | > 32 | 16 | 8
8 | Cc1c(-c2ccc(N)nc2)ccc2ccc(=O)n(C3CC3)c12 [Example 75, 7-(6-aminopyridin-3-yl)-1-cyclopropyl-8-methylquinolin-2(1H)-one] | 32 (≈ 110 µM) | > 32 | 8 (≈ 27.5 µM) | 32 (≈ 110 µM) | > 32 | 0.5 (≈ 1.72 µM) | 8 (≈ 27.5 µM)
9 | Cc1c(-c2ccc(N)nc2)ccc2cc(O)c(=O)n(C3CC3)c12 [Example 77, 7-(6-Aminopyridin-3-yl)-1-cyclopropyl-3-hydroxy-8-methylquinolin-2(1H)-one TFA salt] | > 32 | > 32 | 4 | 32 | > 32 | 0.5 | 32
10 | COc1cc2ccc(-c3ccc(N)nc3)c(C)c2n(C2CC2)c1=O [Example 78, 7-(6-Aminopyridin-3-yl)-1-cyclopropyl-3-methoxy-8-methylquinolin-2(1H)-one TFA salt] | > 32 | > 32 | 8 | 32 | > 32 | 1 | 16
